{
  "source": "paper PMC5218480",
  "about": "(PLoS ONE, 2017)",
  "tested_on": "MV-4-11 cells",
  "experiment": "Gene expression microarray analysis (Affymetrix PrimeView) and GSEA",
  "assay_type": "cell-based, human",
  "parameters": "RFU PODN (11730768_x_at) / Fold change /veh PODN (11730768_x_at) / RFU LINC00158 (11744669_a_at) / Fold change /veh LINC00158 (11744669_a_at) / RFU DUSP10 (11751237_a_at) / Fold change /veh DUSP10 (11751237_a_at) / RFU ID3 (11757404_x_at) / Fold change /veh ID3 (11757404_x_at) / RFU PLEKHG5 (11737974_s_at) / Fold change /veh PLEKHG5 (11737974_s_at) / RFU LRRC4B (11730491_at) / Fold change /veh LRRC4B (11730491_at) / RFU GIMAP4 (11747438_a_at) / Fold change /veh GIMAP4 (11747438_a_at) / RFU KRT8 (11758183_x_at) / Fold change /veh KRT8 (11758183_x_at) / RFU CNN1 (11734310_a_at) / Fold change /veh CNN1 (11734310_a_at) / RFU VPS37D (11726825_at) / Fold change /veh VPS37D (11726825_at) / RFU C10orf10 (11716522_x_at) / Fold change /veh C10orf10 (11716522_x_at) / RFU KIR2DL2 /// KIR2DL4 /// KIR2DL5A /// KIR2DL5B /// KIR2DS1 /// KIR2DS2 /// KIR2DS3 /// KIR2DS4 /// KIR3DL3 /// KIR3DL3 /// KIR3DS1 (11738374_at) / Fold change /veh KIR2DL2 /// KIR2DL4 /// KIR2DL5A /// KIR2DL5B /// KIR2DS1 /// KIR2DS2 /// KIR2DS3 /// KIR2DS4 /// KIR3DL3 /// KIR3DL3 /// KIR3DS1 (11738374_at) / RFU C1QL1 (11718748_at) / Fold change /veh C1QL1 (11718748_at) / RFU TMPRSS4 (11747572_a_at) / Fold change /veh TMPRSS4 (11747572_a_at) / RFU HAMP (11756126_x_at) / Fold change /veh HAMP (11756126_x_at) / RFU RNFT2 (11725882_a_at) / Fold change /veh RNFT2 (11725882_a_at) / RFU NR4A2 (11747474_a_at) / Fold change /veh NR4A2 (11747474_a_at) / RFU ABCC12 (11746883_a_at) / Fold change /veh ABCC12 (11746883_a_at) / RFU TMEM136 (11760407_x_at) / Fold change /veh TMEM136 (11760407_x_at) / RFU CLDN22 /// WWC2 (11732394_at) / Fold change /veh CLDN22 /// WWC2 (11732394_at) / RFU HLA-DPB1 (11760878_x_at) / Fold change /veh HLA-DPB1 (11760878_x_at) / RFU SPINT1 (11716480_a_at) / Fold change /veh SPINT1 (11716480_a_at) / RFU GAP43 (11754022_s_at) / Fold change /veh GAP43 (11754022_s_at) / RFU A4GNT (11735810_at) / Fold change /veh A4GNT (11735810_at) / RFU PRB3 (11715151_x_at) / Fold change /veh PRB3 (11715151_x_at) / RFU TUBB4B (11761932_at) / Fold change /veh TUBB4B (11761932_at) / RFU CAPN14 (11732068_a_at) / Fold change /veh CAPN14 (11732068_a_at) / RFU TMCC2 (11721928_a_at) / Fold change /veh TMCC2 (11721928_a_at) / RFU IRGQ (11745062_a_at) / Fold change /veh IRGQ (11745062_a_at) / RFU FAM174B (11720279_a_at) / Fold change /veh FAM174B (11720279_a_at) / RFU TMPRSS4 (11748680_a_at) / Fold change /veh TMPRSS4 (11748680_a_at) / RFU FAM212B (11763350_a_at) / Fold change /veh FAM212B (11763350_a_at) / RFU PLEKHG5 (11743358_a_at) / Fold change /veh PLEKHG5 (11743358_a_at) / RFU ZSCAN30 (11745921_a_at) / Fold change /veh ZSCAN30 (11745921_a_at) / RFU CMKLR1 (11741424_a_at) / Fold change /veh CMKLR1 (11741424_a_at) / RFU LOC101060620 /// MAPK8IP1 (11723275_at) / Fold change /veh LOC101060620 /// MAPK8IP1 (11723275_at) / RFU SPTSSB (11747773_x_at) / Fold change /veh SPTSSB (11747773_x_at) / RFU PRSS12 (11739890_at) / Fold change /veh PRSS12 (11739890_at) / RFU BIN1 (11741810_x_at) / Fold change /veh BIN1 (11741810_x_at) / RFU WNT11 (11732464_a_at) / Fold change /veh WNT11 (11732464_a_at) / RFU C10orf10 (11716521_a_at) / Fold change /veh C10orf10 (11716521_a_at) / RFU C5orf56 (11738089_at) / Fold change /veh C5orf56 (11738089_at) / RFU CYB561 (11721691_x_at) / Fold change /veh CYB561 (11721691_x_at) / RFU ANKRD19P (11752326_a_at) / Fold change /veh ANKRD19P (11752326_a_at) / RFU OR2T12 /// OR2T33 /// OR2T8 (11738714_s_at) / Fold change /veh OR2T12 /// OR2T33 /// OR2T8 (11738714_s_at) / RFU VCAN (11748164_a_at) / Fold change /veh VCAN (11748164_a_at) / RFU JSRP1 (11732532_at) / Fold change /veh JSRP1 (11732532_at) / RFU KRTAP10-11 (11738290_x_at) / Fold change /veh KRTAP10-11 (11738290_x_at) / RFU MYO3A (11730013_a_at) / Fold change /veh MYO3A (11730013_a_at) / RFU EBF3 (11725865_a_at) / Fold change /veh EBF3 (11725865_a_at) / RFU CAMK2N1 (11719241_x_at) / Fold change /veh CAMK2N1 (11719241_x_at) / RFU C5orf56 (11738088_a_at) / Fold change /veh C5orf56 (11738088_a_at) / RFU OLFML3 (11715873_a_at) / Fold change /veh OLFML3 (11715873_a_at) / RFU LOC100653217 /// NTM (11731650_a_at) / Fold change /veh LOC100653217 /// NTM (11731650_a_at) / RFU MAPK11 (11762145_a_at) / Fold change /veh MAPK11 (11762145_a_at) / RFU FIZ1 (11724087_x_at) / Fold change /veh FIZ1 (11724087_x_at) / RFU OASL (11726364_x_at) / Fold change /veh OASL (11726364_x_at) / RFU SOX15 (11748057_x_at) / Fold change /veh SOX15 (11748057_x_at) / RFU CD79A (11719716_a_at) / Fold change /veh CD79A (11719716_a_at) / RFU HIST1H1D (11736915_at) / Fold change /veh HIST1H1D (11736915_at) / RFU CASKIN2 (11723855_a_at) / Fold change /veh CASKIN2 (11723855_a_at) / RFU LOC730098 (11760151_x_at) / Fold change /veh LOC730098 (11760151_x_at) / RFU OR4N2 (11742367_at) / Fold change /veh OR4N2 (11742367_at) / RFU PRRT2 (11749266_a_at) / Fold change /veh PRRT2 (11749266_a_at) / RFU SNX32 (11753110_a_at) / Fold change /veh SNX32 (11753110_a_at) / RFU CDHR5 (11726645_a_at) / Fold change /veh CDHR5 (11726645_a_at) / RFU RCAN1 (11760418_a_at) / Fold change /veh RCAN1 (11760418_a_at) / RFU FAM167A (11723789_a_at) / Fold change /veh FAM167A (11723789_a_at) / RFU FAM26E (11764081_at) / Fold change /veh FAM26E (11764081_at) / RFU ISYNA1 (11749810_s_at) / Fold change /veh ISYNA1 (11749810_s_at) / RFU ACY1 (11761880_at) / Fold change /veh ACY1 (11761880_at) / RFU 11764098_at / Fold change /veh 11764098_at / RFU SAMD14 (11745864_x_at) / Fold change /veh SAMD14 (11745864_x_at) / RFU NPB (11741838_a_at) / Fold change /veh NPB (11741838_a_at) / RFU TMPRSS6 (11731388_a_at) / Fold change /veh TMPRSS6 (11731388_a_at) / RFU KRTAP10-2 (11738614_at) / Fold change /veh KRTAP10-2 (11738614_at) / RFU ARHGAP8 /// PRR5-ARHGAP8 (11727945_x_at) / Fold change /veh ARHGAP8 /// PRR5-ARHGAP8 (11727945_x_at) / RFU KRTAP5-7 /// NADSYN1 (11734609_at) / Fold change /veh KRTAP5-7 /// NADSYN1 (11734609_at) / RFU RASL12 (11751679_a_at) / Fold change /veh RASL12 (11751679_a_at) / RFU CDKN2B (11736163_a_at) / Fold change /veh CDKN2B (11736163_a_at) / RFU PRF1 (11729649_at) / Fold change /veh PRF1 (11729649_at) / RFU, ZNF638 /// ZNF638-IT1 / Fold change vs veh, ZNF638 /// ZNF638-IT1 / RFU, PANK3 / Fold change vs veh, PANK3 / RFU, SH3YL1 / Fold change vs veh, SH3YL1 / RFU, ZEB2 / Fold change vs veh, ZEB2 / RFU, NRIP1 / Fold change vs veh, NRIP1 / RFU, PTTG1IP / Fold change vs veh, PTTG1IP / RFU, CAPN2 / Fold change vs veh, CAPN2 / RFU, MED14 / Fold change vs veh, MED14 / RFU, SNORA58 / Fold change vs veh, SNORA58 / RFU, C1orf63 / Fold change vs veh, C1orf63 / RFU, LRRFIP1 / Fold change vs veh, LRRFIP1 / RFU, NDUFAF7 / Fold change vs veh, NDUFAF7 / RFU, SLC12A2 / Fold change vs veh, SLC12A2 / RFU, IBTK / Fold change vs veh, IBTK / RFU, ESF1 / Fold change vs veh, ESF1 / Fold change vs veh, TMEM50B / RFU, TAOK1 / Fold change vs veh, TAOK1 / RFU, ACBD3 / Fold change vs veh, ACBD3 / RFU, TMA16 / Fold change vs veh, TMA16 / RFU, RWDD3 / Fold change vs veh, RWDD3 / RFU, BCAT1 / Fold change vs veh, BCAT1 / RFU, EDEM3 / Fold change vs veh, EDEM3 / RFU, TMEM33 / Fold change vs veh, TMEM33 / RFU, WDR75 / Fold change vs veh, WDR75 / RFU, AHCTF1 / Fold change vs veh, AHCTF1 / RFU, TFRC / Fold change vs veh, TFRC / RFU, ZDHHC17 / Fold change vs veh, ZDHHC17 / RFU, NOM1 / Fold change vs veh, NOM1 / RFU, ARL8B / Fold change vs veh, ARL8B / RFU, ZBTB11 / Fold change vs veh, ZBTB11 / RFU, TAMM41 / Fold change vs veh, TAMM41 / RFU, KIAA1704 /// LOC100996395 / Fold change vs veh, KIAA1704 /// LOC100996395 / RFU, ING1 / Fold change vs veh, ING1 / RFU, TRMT61B / Fold change vs veh, TRMT61B / RFU, FUBP3 / Fold change vs veh, FUBP3 / RFU, TP53 / Fold change vs veh, TP53 / RFU, TNKS2 / Fold change vs veh, TNKS2 / RFU, ZFP14 / Fold change vs veh, ZFP14 / RFU, ACTR2 / Fold change vs veh, ACTR2 / RFU, PPP3R1 / Fold change vs veh, PPP3R1 / RFU, PIK3R1 / Fold change vs veh, PIK3R1 / RFU, HNRNPA1 / Fold change vs veh, HNRNPA1 / RFU, RNF170 / Fold change vs veh, RNF170 / RFU, ZNF28 / Fold change vs veh, ZNF28 / RFU, RNGTT / Fold change vs veh, RNGTT / RFU, OGT / Fold change vs veh, OGT / RFU, BRD1 / Fold change vs veh, BRD1 / RFU, MARS / Fold change vs veh, MARS / RFU, ZNF655 / Fold change vs veh, ZNF655 / RFU, FAHD1 / Fold change vs veh, FAHD1 / RFU, BDP1 / Fold change vs veh, BDP1 / RFU, LRRCC1 / Fold change vs veh, LRRCC1 / RFU, ARID1A / Fold change vs veh, ARID1A / RFU, ZNF146 / Fold change vs veh, ZNF146 / RFU, ZNF330 / Fold change vs veh, ZNF330 / RFU, GPN3 / Fold change vs veh, GPN3 / RFU, C9orf123 / Fold change vs veh, C9orf123 / RFU, N4BP2L2 / Fold change vs veh, N4BP2L2 / RFU, ARFIP1 / Fold change vs veh, ARFIP1 / RFU, FAM179B / Fold change vs veh, FAM179B / RFU, BCL10 / Fold change vs veh, BCL10 / RFU, UHRF1BP1L / Fold change vs veh, UHRF1BP1L / RFU, BET1 / Fold change vs veh, BET1 / RFU, CNOT2 / Fold change vs veh, CNOT2 / RFU, ZNF268 / Fold change vs veh, ZNF268 / Fold change vs veh, ZNF507 / RFU, DGCR2 / Fold change vs veh, DGCR2 / RFU, WDSUB1 / Fold change vs veh, WDSUB1 / Fold change vs veh, HSP90B1 /// MIR3652 / RFU, ADSS / Fold change vs veh, ADSS / RFU, GK / Fold change vs veh, GK / RFU, ZNF148 / Fold change vs veh, ZNF148 / RFU, TAF9 / Fold change vs veh, TAF9 / RFU, SLC1A5 / Fold change vs veh, SLC1A5 / RFU, SLMO2 / Fold change vs veh, SLMO2 / RFU, ABCC4 / Fold change vs veh, ABCC4 / RFU, LOC101060439 /// RAP1B / Fold change vs veh, LOC101060439 /// RAP1B / RFU, RFX7 / Fold change vs veh, RFX7 / RFU, GTPBP10 / Fold change vs veh, GTPBP10 / RFU, CNEP1R1 / Fold change vs veh, CNEP1R1 / RFU, BIVM-ERCC5 /// ERCC5 / Fold change vs veh, BIVM-ERCC5 /// ERCC5 / RFU, ILF3 / Fold change vs veh, ILF3 / RFU 11762660_at / Fold change /veh 11762660_at / RFU VCAN (11757783_s_at) / Fold change /veh VCAN (11757783_s_at) / RFU DDX43 (11728927_at) / Fold change /veh DDX43 (11728927_at) / RFU KRT8 (11758188_x_at) / Fold change /veh KRT8 (11758188_x_at) / RFU NKD1 (11759106_at) / Fold change /veh NKD1 (11759106_at) / RFU SRD5A1 (11742802_a_at) / Fold change /veh SRD5A1 (11742802_a_at) / RFU TPSAB1 /// TPSB2 (11721975_s_at) / Fold change /veh TPSAB1 /// TPSB2 (11721975_s_at) / RFU GSTM3 (11746129_a_at) / Fold change /veh GSTM3 (11746129_a_at) / RFU IL23R (11737362_x_at) / Fold change /veh IL23R (11737362_x_at) / RFU TMEM51 (11727254_a_at) / Fold change /veh TMEM51 (11727254_a_at) / RFU PIWIL2 (11732686_x_at) / Fold change /veh PIWIL2 (11732686_x_at) / RFU ORM1 (11744905_x_at) / Fold change /veh ORM1 (11744905_x_at) / RFU CCDC152 (11743942_at) / Fold change /veh CCDC152 (11743942_at) / RFU ECM1 (11717891_a_at) / Fold change /veh ECM1 (11717891_a_at) / RFU IL23R (11748794_a_at) / Fold change /veh IL23R (11748794_a_at) / RFU TNFAIP8L3 (11732012_x_at) / Fold change /veh TNFAIP8L3 (11732012_x_at) / RFU MBOAT4 (11741988_at) / Fold change /veh MBOAT4 (11741988_at) / RFU 11764193_at / Fold change /veh 11764193_at / RFU TMEM53 (11763286_at) / Fold change /veh TMEM53 (11763286_at) / RFU MAGEB2 (11727129_at) / Fold change /veh MAGEB2 (11727129_at) / RFU TMEM200A (11744735_a_at) / Fold change /veh TMEM200A (11744735_a_at) / RFU CCDC152 (11751479_a_at) / Fold change /veh CCDC152 (11751479_a_at) / RFU FAM211A (11726209_a_at) / Fold change /veh FAM211A (11726209_a_at) / RFU RGS16 (11746705_a_at) / Fold change /veh RGS16 (11746705_a_at) / RFU VCAN (11755009_s_at) / Fold change /veh VCAN (11755009_s_at) / RFU RHOB (11743442_s_at) / Fold change /veh RHOB (11743442_s_at) / RFU RGS16 (11720943_a_at) / Fold change /veh RGS16 (11720943_a_at) / RFU RGS16 (11720944_at) / Fold change /veh RGS16 (11720944_at) / RFU, VPS4B / Fold change vs veh, VPS4B / RFU, CREB1 / Fold change vs veh, CREB1 / RFU, DNAJC13 / Fold change vs veh, DNAJC13 / RFU, GNAQ / Fold change vs veh, GNAQ / RFU, CDK5R1 / Fold change vs veh, CDK5R1 / RFU, ZRANB3 / Fold change vs veh, ZRANB3 / RFU, CUL4A / Fold change vs veh, CUL4A / RFU, CCNY / Fold change vs veh, CCNY / RFU, UFL1 / Fold change vs veh, UFL1 / RFU, COG3 / Fold change vs veh, COG3 / RFU, DIAPH2 / Fold change vs veh, DIAPH2 / RFU, SKA2 / Fold change vs veh, SKA2 / RFU, AFF3 / Fold change vs veh, AFF3 / RFU, LMF1 / Fold change vs veh, LMF1 / RFU, IPO11 / Fold change vs veh, IPO11 / RFU, DFFB / Fold change vs veh, DFFB / RFU, FOXP1 / Fold change vs veh, FOXP1 / RFU, CARD8 / Fold change vs veh, CARD8 / RFU, STRN3 / Fold change vs veh, STRN3 / RFU, ADK / Fold change vs veh, ADK / RFU, RASSF2 / Fold change vs veh, RASSF2 / RFU, WIPF1 / Fold change vs veh, WIPF1 / RFU, LARP1B / Fold change vs veh, LARP1B / RFU, RASA1 / Fold change vs veh, RASA1 / RFU, RB1 / Fold change vs veh, RB1 / RFU, PPFIA1 / Fold change vs veh, PPFIA1 / RFU, MAT2A / Fold change vs veh, MAT2A / RFU, CCT5 / Fold change vs veh, CCT5 / RFU, WDR92 / Fold change vs veh, WDR92 / RFU, CUX1 / Fold change vs veh, CUX1 / RFU, TTC7A / Fold change vs veh, TTC7A / RFU, TMEM135 / Fold change vs veh, TMEM135 / RFU, DEPTOR / Fold change vs veh, DEPTOR / RFU, CPM / Fold change vs veh, CPM / RFU, DNAJB6 / Fold change vs veh, DNAJB6 / RFU, CACNA2D3 / Fold change vs veh, CACNA2D3 / RFU, DTX4 / Fold change vs veh, DTX4 / RFU, TFCP2 / Fold change vs veh, TFCP2 / RFU, GMCL1 /// GMCL1P1 / Fold change vs veh, GMCL1 /// GMCL1P1 / RFU, AEBP2 / Fold change vs veh, AEBP2 / RFU, SNHG1 /// SNORD22 /// SNORD25 /// SNORD26 /// SNORD27 /// SNORD28 /// SNORD29 /// SNORD31 / Fold change vs veh, SNHG1 /// SNORD22 /// SNORD25 /// SNORD26 /// SNORD27 /// SNORD28 /// SNORD29 /// SNORD31 / Fold change (Aza/veh), C12orf56 (ProbeSet 11735607_a_at) / Fold change (ACY-1035/veh), C12orf56 (ProbeSet 11735607_a_at) / Fold change (Aza/veh), FGFR1OP (ProbeSet 11751329_s_at) / Fold change (ACY-1035/veh), FGFR1OP (ProbeSet 11751329_s_at) / Fold change (Aza/veh), VPS36 (ProbeSet 11739960_a_at) / Fold change (ACY-1035/veh), VPS36 (ProbeSet 11739960_a_at) / RFU SYPL1 (11715823_x_at) / Fold change /veh SYPL1 (11715823_x_at) / RFU IGFBP7 (11715501_s_at) / Fold change /veh IGFBP7 (11715501_s_at) / RFU REEP3 (11722064_at) / Fold change /veh REEP3 (11722064_at) / RFU IGLL1 (11728026_x_at) / Fold change /veh IGLL1 (11728026_x_at): dose or concentration left out as unconfirmed",
  "settings": "MV-4-11 cells, 48 hours",
  "data": [
    {"compound": "Nc1ncn([C@@H]2O[C@H](CO)[C@@H](O)[C@H]2O)c(=O)n1", "note": "[azacitidine]", "values": [
      {"measurement": "Fold change /veh NR4A2 (11747474_a_at)", "result": 0.97}
    ]}
  ]
}
